According to patent US20110034472A1, “Novel Compounds for Treatment of Cancer and Disorders Associated With Angiogenesis Function” (UNIVERSITY OF SOUTHERN CALIFORNIA, priority 2004, published 2011):
Where a name gives a salt, the structure may show the parent alone. Read-outs that look alike come from different tables or passages of the source. One block for each compound: values may come before it.

How the values were obtained:
[1] = tested on: CEM or HEY cells; test: Cytotoxicity of salicylhydrazides (Table 5); format: cell-based; conditions: Homo sapiens
Excerpt: Human prostate cancer cells (PC3, p53 null, AR−; DU145, p53 mutant, AR−; and LNCaP, p53 wild-type, AR+) and breast cancer cells (MCF-7, overexpressed wild-type p53, ER+; MDA-MB-468, p53 mutant, […]; and MDA-MB-435, p53 mutant, ER−) were obtained from American Type Cell Culture (Manassas, Va.). The human ovarian carcinoma cell line (HEY) naturally resistant to cisplatin (CDDP) was kindly provided by Dr. Dubeau (University of Southern California Norris Cancer Center; Buick et al. (1985) Cancer Res. 45:3668-76 and Hamaguchi et al. (1993) Cancer Res. 53:5225-32). The results with CEM cells were previously described (Neamati et al. (1998) J. Med. Chem. 41:3202-9). Cells were maintained as monolayer cultures in RPMI 1640 supplemented with 10% fetal bovine serum (Gemini-Bioproducts, Woodland, Calif.) and 2 mmol/L L-glutamine at 37° C. in a humidified atmosphere of 5% CO2. To remove the adherent cells from the flask for passaging and counting, cells were washed with PBS without calcium or magnesium, incubated with a small volume of 0.25% trypsin-EDTA solution (Sigma-Aldrich, St. Louis, Mo.) for 5 to 10 minutes, and washed with culture medium and centrifuged. All experiments were done using cells in exponential cell growth.
(§1) Cytotoxicity was assessed by a 3-(4,5-dimethylthiazol-2-yl)-2,5-diphenyltetrazolium bromide assay as previously described (Carmichael et al. (1987) Cancer Res. 47:936-42). Briefly, cells were seeded in 96-well microtiter plates (PC3 and DU145 at 5,000 cells/well and LNCaP at 10,000 cells/well; breast and ovarian cells at 4,000 cells/well) and allowed to attach. Cells were subsequently treated with a continuous exposure to the corresponding drug for 72 hours. A 3-(4,5-dimethylthiazol-2-yl)-2,5-diphenyltetrazolium bromide solution (at a final concentration of 0.5 mg/mL) was added to each well and cells were incubated for 4 hours at 37° C. After removal of the medium, DMSO was added and the absorbance was read at 570 nm. All assays were done in triplicate. The IC50 was then determined for each drug from a plot of log(drug concentration) versus percentage of cell kill.

[2] = tested on: HCT 116 p53^+/+ colon cancer cells; test: MTT cytotoxicity assay, HCT 116 p53+/+; format: cell-based, human; conditions: 72 h
Excerpt: (§2) Human breast cancer cells MDA-MB-435 and colon cancer HT29, p53 mutant were purchased from the American Type Cell Culture (Manassas, Va.). The HCT116 P53^+/+ and HCT116 P53^−/− cells were kindly provided by Dr. Bert Vogelstein (Johns Hopkins Medical Institutions, Baltimore, Md.). Human prostate cancer cells, LNCaP, were kindly provided by Richard Cote (University of Southern California Keck School of Medicine). Cells were maintained as monolayer cultures in RPMI 1640 media supplemented with 10% fetal bovine serum (Gemini-Bioproducts, Woodland, Calif.) and 2 mmol/L L-glutamine at 37° C. in a humidified atmosphere of 5% CO2. To remove the adherent cells from the flask for passaging and counting, cells were washed with PBS without calcium or magnesium, incubated with a small volume of 0.25% trypsin-EDTA solution (Sigma-Aldrich, St. Louis, Mo.) for 5-10 min, and washed with culture medium and centrifuged. All experiments were performed using cells at exponential growth stage. Cells were routinely checked for mycoplasma contamination using a PCR-based assay (Stratagene, Cambridge, UK).
(§3) Cytotoxicity was assessed by a 3-(4,5-dimethylthiazol-2-yl)-2,5-diphenyltetrazolium bromide (MTT) assay as previously described.^9 Briefly, cells were seeded in 96-well microtiter plates and allowed to attach. Cells were subsequently treated with continuous exposure to the corresponding drug for 72 h. An MTT solution (at a final concentration of 0.5 mg/mL) was added to each well, and cells were incubated for 4 h at 37° C. After removal of the medium, DMSO was added and the absorbance was read at 570 nm. All assays were done in triplicate. The IC50 was then determined for each drug from a plot of log (drug concentration) versus percentage of cells killed.

[3] = tested on: MDA-MB-435 breast cancer cells; test: MTT cytotoxicity assay, MDA-MB-435; format: cell-based, human; conditions: MTT, 72 h, read-out: IC50
Method: The sensitivity of a panel of seven human cancer cell lines to SC144 was assessed by MTT-assay. […] The sensitivity towards SC144 was time- and dose-dependent.
as §1, §3

[4] = tested on: HCT 116 p53^−/− colon cancer cells; test: MTT cytotoxicity assay, HCT 116 p53-/-; format: cell-based, human; conditions: 72 h
Excerpt: as §2, §3

[5] = tested on: HT29 colon cancer cells; test: MTT cytotoxicity assay, HT 29; format: cell-based, human; conditions: 72 h
Excerpt: as §2, §3

[6] = tested on: human cancer cell lines (MDA-MB-435 and three colon cancer cells); test: MTT assay, panel of breast, colon and prostate cell lines (Example V); format: cell-based
Method: All new compounds were tested in four human cancer cell lines, a breast cancer cell, MDA-MB-435, and three colon cancer cells.
as §3

SMILES: O=C(NNc1nc2cc(F)ccc2n2cccc12)c1ccccn1 (as salt: hydrochloride) [SC160′, N′-(7-Fluoropyrrolo[1,2-a]quinoxalin-4-yl)pyridine-2-carbohydrazide hydrochloride]
melting point: > 280 °C (dec.)

melting point: 248 °C (dec.)
SMILES: O=C(NNc1nc2cccc(F)c2n2cccc12)c1cnccn1 (as salt: hydrochloride) [SC161′, N′-(9-Fluoropyrrolo[1,2-a]quinoxalin-4-yl)pyrazine-2-carbohydrazide hydrochloride]

melting point: 280 °C (dec.)
SMILES: O=C(NNc1nc2cc(F)ccc2n2cccc12)c1cnc2ccccc2n1 (as salt: hydrochloride) [SC166′, N′-(7-Fluoropyrrolo[1,2-a]quinoxalin-4-yl)quinoxaline-2-carbohydrazide hydrochloride]

SMILES: O=C(NNC(=O)c1ccccc1O)c1ccccc1O [SC20]
IC50 [1]: 0.1 ± 0.01 µM

SMILES: COc1ccc(/C=C2/C(=O)N(C(=O)c3ccccc3O)N=C2C)cc1OC [SC25]
IC50 [1]: 0.15 µM

SMILES: CC1=NN(C(=O)c2ccccc2O)C(=O)/C1=C/c1ccccc1O [SC26]
IC50 [1]: 0.06 µM

SMILES: CC1=NN(C(=O)c2ccccc2O)C(=O)/C1=C/c1ccc(O)cc1 [SC27]
IC50 [1]: 0.06 µM

SMILES: O=C(CN1C(=O)C/C(=C\c2ccc(Cl)cc2)C1O)NNC(=O)C1=CCCC=C1O (stereo not shown) [SC28]
IC50 [1]: 10 ± 2 µM

SMILES: Cc1cccc(C(=O)NNC(O)c2ccc(N3C(=O)c4ccccc4C3=O)cc2)c1 (stereo not shown) [SC29]
IC50 [1]: 7 ± 2 µM

SMILES: O=C(CNC(=O)c1ccccc1O)c1ccc(N2C(=O)c3ccccc3C2=O)cc1 [SC30]
IC50 [1]: 6.5 ± 1 µM

SMILES: C=C/C=C(\C=C)N1N=C(C)/C(=C(/NNC(=O)c2ccccc2O)c2ccccc2)C1=O [SC31]
IC50 [1]: 10 ± 2 µM

SMILES: C=C/C=C(\C=C)N1N=C(C)/C(=C/NNC(=O)c2ccccc2)C1=O [SC32]
IC50 [1]: 2 ± 1 µM

SMILES: O=C(/C=C/NNC(=O)c1ccccc1O)c1ccccc1 [SC33]
IC50 [1]: 20 µM

SMILES: O=C(COc1ccccc1Cl)NNC(=O)c1cc2ccccc2cc1O [SC34]
IC50 [1]: 20 µM

SMILES: COc1ccc2oc(=O)c(C(=O)NNC(=O)c3cccc(C)c3)cc2c1 [SC35]
IC50 [1]: 12 ± 2 µM

SMILES: COc1ccc(NC(=O)NNC(=O)c2c(O)ccc3ccccc23)cc1 [SC36]
IC50 [1]: 20 µM

SMILES: C=C1C/C(=C\c2ccc(Cl)cc2)C(=O)N1CC(=O)NNC(=O)c1ccccc1O [SC37]
IC50 [1]: 15 ± 3 µM

melting point: 210 to 212 °C
SMILES: O=C(NNc1nc2ccccc2n2cccc12)c1ccc[nH]1 [SC141, 1H-Pyrrole-2-carboxylic acid N′-pyrrolo[1,2-a]quinoxalin-4-yl-hydrazide]

melting point: 116 °C
SMILES: Cc1cc2nc(NNC(=O)c3cnccn3)c3cccn3c2cc1C [SC143, Pyrazine-2-carboxylic acid N′-(7,8-dimethyl-pyrrolo[1,2-a]quinoxalin-4-yl)-hydrazide]

melting point: 164.5 °C
SMILES: NCCC(=O)NNc1nc2ccccc2n2cccc12 [SC154, 3-Amino-propionic acid N′-pyrrolo[1,2-a]quinoxalin-4-yl-hydrazide]
IC50 ([2]; Homo sapiens): > 20 µM
IC50 ([3]; Homo sapiens): > 20 µM
IC50 ([4]; Homo sapiens): > 20 µM
IC50 ([5]; Homo sapiens): > 20 µM

melting point: 186 °C
SMILES: O=C(NNc1nc2ccccc2n2cccc12)c1cc2ccccc2[nH]1 [SC155, 1H-indole-2-carboxylic acid N′-pyrrolo[1,2-a]quinoxalin-4-yl-hydrazide]
IC50 ([2]; Homo sapiens): > 20 µM
IC50 ([3]; Homo sapiens): > 20 µM
IC50 ([4]; Homo sapiens): > 20 µM
IC50 ([5]; Homo sapiens): > 20 µM

melting point: 160 °C
SMILES: O=C(NNc1nc2ccccc2n2cccc12)c1ccc2[nH]ccc2c1 [SC156, 1H-Indole-5-carboxylic acid N′-pyrrolo[1,2-a]quinoxalin-4-yl-hydrazide]
IC50 ([2]; Homo sapiens): > 20 µM
IC50 ([3]; Homo sapiens): > 20 µM
IC50 ([4]; Homo sapiens): > 20 µM
IC50 ([5]; Homo sapiens): > 20 µM

melting point: 198.5 °C
SMILES: O=C(NNc1nc2ccccc2n2cccc12)c1ccc2cc[nH]c2c1 [SC157, 1H-Indole-6-carboxylic acid N′-pyrrolo[1,2-a]quinoxalin-4-yl-hydrazide]
IC50 ([2]; Homo sapiens): > 20 µM
IC50 ([3]; Homo sapiens): > 20 µM
IC50 ([4]; Homo sapiens): > 20 µM
IC50 ([5]; Homo sapiens): > 20 µM

melting point: 162.5 °C
SMILES: O=C(NNc1nc2ccccc2n2cccc12)c1c[nH]c2ccccc12 [SC158, 1H-Indole-3-carboxylic acid N′-pyrrolo[1,2-a]quinoxalin-4-yl-hydrazide]
IC50 ([2]; Homo sapiens): > 20 µM
IC50 ([3]; Homo sapiens): > 20 µM
IC50 ([4]; Homo sapiens): > 20 µM
IC50 ([5]; Homo sapiens): > 20 µM

SMILES: COc1ccccc1C(=O)NNc1nc2ccccc2n2cccc12 [SC159, 2-Methoxy-N′-(H-pyrrolo[1,2-a]quinoxalin-4-yl)benzohydrazide]
IC50 [2]: > 20 µM
IC50 [3]: > 20 µM
IC50 [4]: > 20 µM
IC50 [5]: > 20 µM

SMILES: O=C(NNc1nc2cc(F)ccc2n2cccc12)c1ccccn1 [SC160′, N′-(7-Fluoropyrrolo[1,2-a]quinoxalin-4-yl)pyridine-2-carbohydrazide hydrochloride]
activity in all cell lines [6]: inactive

SMILES: Cl.O=C(NNc1nc2cc(F)ccc2n2cccc12)c1cccnc1 [SC162′, N′-(7-Fluoropyrrolo[1,2-a]quinoxalin-4-yl)nicotinyl hydrazide hydrochloride]
activity in all cell lines [6]: inactive

SMILES: N#Cc1ccc(C(N)CC(=O)NNc2nc3ccccc3n3cccc23)cc1 (stereo not shown) [SC163, 3-Amino-3-(4-cyano-phenyl)-propionic acid N′-pyrrolo[1,2-a]quinoxalin-4-yl-hydrazide]
IC50 ([2]; Homo sapiens): > 20 µM
IC50 ([3]; Homo sapiens): > 20 µM
IC50 ([4]; Homo sapiens): > 20 µM
IC50 ([5]; Homo sapiens): > 20 µM

SMILES: COc1ccc(C(N)CC(=O)NNc2nc3ccccc3n3cccc23)cc1 (stereo not shown) [SC164, 3-Amino-3-(4-methoxy-phenyl)-propionic acid N′-pyrrolo[1,2-a]quinoxalin-4-yl-hydrazide]
IC50 ([2]; Homo sapiens): > 20 µM
IC50 ([3]; Homo sapiens): > 20 µM
IC50 ([4]; Homo sapiens): > 20 µM
IC50 ([5]; Homo sapiens): > 20 µM

SMILES: NC(CC(=O)NNc1nc2ccccc2n2cccc12)c1ccc(C(F)(F)F)cc1 (stereo not shown) [SC165, 3-Amino-3-(4-trifluoromethyl-phenyl)-propionic acid N′-pyrrolo[1,2-a]quinoxalin-4-yl-hydrazide]
IC50 ([2]; Homo sapiens): > 20 µM
IC50 ([3]; Homo sapiens): > 20 µM
IC50 ([4]; Homo sapiens): > 20 µM
IC50 ([5]; Homo sapiens): > 20 µM

SMILES: O=C(NNc1nc2ccccc2n2cccc12)c1ccccc1F [SC166, 2-Fluoro-benzoic acid N′-pyrrolo[1,2-a]quinoxalin-4-yl-hydrazide]
IC50 ([2]; Homo sapiens): 8 ± 1 µM
IC50 ([3]; Homo sapiens): 15 ± 1 µM
IC50 ([4]; Homo sapiens): 11 ± 1 µM
IC50 ([5]; Homo sapiens): 13 ± 2 µM

IC50 ([6]; Homo sapiens, MDA-MB-435, representative breast, colon, and prostate cell lines, MTT assay, read-out: IC50 values range): 8 to 15 µM
SMILES: O=C(NNc1nc2cc(F)ccc2n2cccc12)c1cnc2ccccc2n1 [SC166′, N′-(7-Fluoropyrrolo[1,2-a]quinoxalin-4-yl)quinoxaline-2-carbohydrazide hydrochloride]
